Here are results for five molecules from paper PMC6009892, “A novel series of pyrazole-platinum(II) complexes as potential anti-cancer agents that induce cell cycle arrest and apoptosis in breast cancer cells” (Journal of Enzyme Inhibition and Medicinal Chemistry, 2018).

What all share (format): cell-based, human
Experiment [1] relates to caspase-9 in MDA-MB-231 breast cancer cells. Put plainly: FLICA caspase-9 activity, flow cytometry, MDA-MB-231. The settings on record: MDA-MB-231, 20 μM, 24 h. As for the experimental part:
(§1) Caspase-9 activity was measured using the FLICA Caspase 9 Assay Kit (ImmunoChemistry Technologies, Bloomington, MN, USA), according to the manufacturer’s instructions. Briefly, cultured MCF-7 and MDA-MB-231 breast cancer cells (1 × 10^6) were washed with cold PBS twice and re-suspended in buffer. We added 5 µl of diluted FLICA reagent and 2 µl of Hoechst 33342 to 93 µl of cell suspension and mixed by pipetting. The cells were incubated for 60 min at 37°C. After incubation, the cells were washed twice in 400 µl of apoptosis wash buffer and centrifuged at 300 × g. After the last wash, we re-suspended cells in 100 µl of apoptosis wash buffer supplemented with 10 µg/ml PI. Analysis was performed using the BD FACSCanto II flow cytometer, and the results were analysed with FACSDiva software (both from BD Biosciences Systems, San Jose, CA).

Experiment [2] relates to caspase-8 in MCF-7 breast cancer cells. The experiment in a line: FLICA caspase-8 activity, flow cytometry, MCF-7. To be noted: MCF-7, 20 μM, 24 h. As for the experimental part:
as §1, with “Caspase-8 activity was” for “Caspase-9 activity was”, “FLICA Caspase 8 Assay Kit” for “FLICA Caspase 9 Assay Kit”, “we re-suspended the cells in” for “we re-suspended cells in”
(In general: Flow cytometry measures light scatter and fluorescence of single cells or particles in a stream.)

Experiment [3] relates to MCF-7 breast cancer cells. Put plainly: MTT cell viability assay, MCF-7. The settings on record: 5-50 μM, read-out: IC50 (cell viability, MTT). As for the experimental part: (§2) MCF-7, MDA-MB-231 (both human breast cancer cell lines), and fibroblast cells were obtained from American Type Culture Collection (ATCC, Manassas, VA, USA). DMEM and FBS used in a cell culture were from Gibco (USA). Glutamine, penicillin, and streptomycin were obtained from Quality Biologicals Inc. (USA). DMEM media was blended with 50 units/ml of penicillin, 50 μg/ml of streptomycin, 10% of FBS. All cell lines were cultured in 5% CO2 and fully humidified at 37 °C. Cells were cultured in Costar flasks and sub-confluent cells were detached with 0.05% trypsin and 0.02% ethylenediaminetetraacetic acid in calcium-free phosphate-buffered saline (PBS), counted in hemocytometers, and plated at 5 × 10^5 cells/well of six-well plates (Thermo Scientific, New York, NY, USA) in 2 ml of growth medium (DMEM without phenol red with 10% CPSR1). Cells reached about 80% of confluency at day 2, and in most cases such cells were used for the assays.
(§3) The viability of cultured cells was decided through assaying the reduction of MTT to formazan. In brief, MCF-7, MDA-MB-231, and fibroblast cells line were seeded at an initial density of 1 × 10^5 cells per well. Then, the cells were incubated at 37 °C for 24 h. Subsequently, cultured cells were treated with a medium containing concentrations (5, 10, 20, 30, 40, and 50 μM) of PtPz1–PtPz6 for 24 h and 48 h. After the incubation period, MTT was added into all wells in the final concentration of 0.5 mg/ml. After that, the cells were incubated at 37 °C for 4 h. Then, by removing the medium, 200 μl of DMSO was added to all wells. As a result, insoluble formazan was dissolved in DMSO (0.5%). At 570 nm (630 nm as a reference), the absorbance was measured in an Evolution 201 reader (Thermo Scientific, Waltham, MA).

Experiment [4] deals with MDA-MB-231 breast cancer cells. Put plainly: DNA fragmentation TUNEL assay, MDA-MB-231. The settings on record: MDA-MB-231, 20 μM, 24 h. On the procedure:
DNA fragmentation associated with apoptosis was examined by the terminal deoxynucleotidyltransferase (TdT)- mediated dUTP nick end labeling (TUNEL) method using a commercial assay kit (APO-Direct Kit; BD Pharmingen, San Diego, CA). After treatment, the cells were fixed with 1% paraformaldehyde in PBS (4°C, 30 min), washed in PBS, and permeabilised with ice-cold 70% ethanol. The APO-Direct Kit TUNEL assay was performed as described by the manufacturer. Briefly, the fixed cells were washed twice using the kit wash buffer, and after centrifugation the supernatant was discarded. The DNA labeling solution (containing TdT enzyme and FITC-dUTP) was added to the cell pellet, and the re-suspended mixture was incubated for 1 h at 37°C with occasional shaking. At the end of incubation time, rinse buffer was added, and after centrifugation the supernatant was discarded. We repeated the cell rinsing with rinse buffer, and then suspended the cell pellet in PI/RNase staining buffer. Cells were incubated at room temperature for 30 min and immediately analysed in a BD FACSCanto II flow cytometer. In total, 10,000 events were collected per test sample. The results were analysed with FACSDiva software (both from BD Biosciences Systems, San Jose, CA). The percentage of cells with distinctive apoptotic DNA strand breaks and distinguished by green fluorescent emission was calculated.

Experiment [5] concerns caspase-9 in MCF-7 breast cancer cells. Put plainly: FLICA caspase-9 activity, flow cytometry, MCF-7. To be noted: MCF-7, 20 μM, 24 h. On the procedure: as §1
Experiment [6] deals with caspase-8 in MDA-MB-231 breast cancer cells. The experiment in a line: FLICA caspase-8 activity, flow cytometry, MDA-MB-231. To be noted: MDA-MB-231, 20 μM, 24 h. As for the experimental part: as §1, with “Caspase-8 activity was” for “Caspase-9 activity was”, “FLICA Caspase 8 Assay Kit” for “FLICA Caspase 9 Assay Kit”, “we re-suspended the cells in” for “we re-suspended cells in”

The subject of experiment [7] is caspase-3 in MDA-MB-231 breast cancer cells. The experiment in a line: FLICA caspase-3 activity, flow cytometry, MDA-MB-231. The settings on record: MDA-MB-231, 20 μM, 24 h. As for the experimental part: as §1, with “Caspase-3 activity was” for “Caspase-9 activity was”, “FLICA Caspase 3 Assay Kit” for “FLICA Caspase 9 Assay Kit”, “Briefly, cultured MDA-MB-231 breast” for “Briefly, cultured MCF-7 and MDA-MB-231 breast”, “we re-suspended the cells in” for “we re-suspended cells in”

Experiment [8] has as its system MDA-MB-231 breast cancer cells. The experiment in a line: MTT cell viability assay, MDA-MB-231. The settings on record: 5-50 μM, read-out: IC50 (cell viability, MTT). On the procedure: as §2, §3
(Tetrazolium dyes change colour on reduction, which living cells bring about.)

Read-outs that look alike come from different tables or passages of the source.

As usually defined, the IC50 is the concentration at which inhibition is half-maximal.

For `Cc1cc(C)[n+]([Pt-2]2([n+]3c(C)cc(C)n3CO)[N](c3ccc(C(=N)N)cc3)N=[N+](c3ccc(C(=N)N)cc3)[Pt-2]([n+]3c(C)cc(C)n3CO)([n+]3c(C)cc(C)n3CO)[N](c3ccc(C(=N)N)cc3)N=[N+]2c2ccc(C(=N)N)cc2)n1CO.Cl.Cl.Cl.Cl.O.O` [PtPz1, [Pt2(N-hydroxymethyl-3,5-dimethylpyrazole)4(berenil)2]·4HCl·2H2O], the entries for the “percent of cells with active caspase-9” value in experiment [1] and in experiment [5] were 47.9% and 52.8%, respectively. For the same molecule, the “increase in caspase-8 activity compared with the control” value in experiment [2] is about 12 fold; in experiment [6], “about 10 fold”. For the same molecule, the “percent of cells with active caspase-8” value in experiment [2] worked out at 56.2%; in experiment [6], 48.9%. Moreover, the IC50 in experiment [3] (MCF-7, 24 h incubation) is 17 ± 2 µM; in experiment [3] (MCF-7, 48 h incubation) it was 11 ± 1 µM; in experiment [8] (MDA-MB-231, 24 h incubation), 16 ± 1 µM; in experiment [8] (MDA-MB-231, 48 h incubation), 10 ± 1 µM. Also, the “percent of TUNEL positive cells” value in experiment [4] turned out to be 58.3%. Further, the “increase in caspase-3 activity compared with untreated cells” value in experiment [7] is listed as “nine-fold increase”. Moreover, the “percent of cells with active caspase-3” value in experiment [7] worked out at 30.6%.

In the case of `Cc1c[nH][n+]([Pt-2]2([n+]3[nH]cc(C)c3C)[N](c3ccc(C(=N)N)cc3)N=[N+](c3ccc(C(=N)N)cc3)[Pt-2]([n+]3[nH]cc(C)c3C)([n+]3[nH]cc(C)c3C)[N](c3ccc(C(=N)N)cc3)N=[N+]2c2ccc(C(=N)N)cc2)c1C.Cl.Cl.Cl.Cl.O.O` [PtPz3, [Pt2(3,4-dimethylpyrazole)4(berenil)2]·4HCl·2H2O], the “percent of cells with active caspase-9” value is recorded as 41.1% in experiment [1] and 43.4% in experiment [5]. For the same molecule, the “percent of cells with active caspase-8” value in experiment [2] worked out at 48.3%; in experiment [6], 38.0%. The half-inhibitory concentration (IC50) in experiment [3] (MCF-7, 24 h incubation) stood at 23 ± 1 µM; in experiment [3] (MCF-7, 48 h incubation) it was 18 ± 1 µM; in experiment [8] (MDA-MB-231, 24 h incubation), 20 ± 2 µM; in experiment [8] (MDA-MB-231, 48 h incubation), 16 ± 1 µM. The “percent of TUNEL positive cells” value in experiment [4] is 50.4%. The “percent of cells with active caspase-3” value in experiment [7] was 22.9%.

As to `CCn1ccc[n+]1[Pt-2]1([n+]2cccn2CC)[N](c2ccc(C(=N)N)cc2)N=[N+](c2ccc(C(=N)N)cc2)[Pt-2]([n+]2cccn2CC)([n+]2cccn2CC)[N](c2ccc(C(=N)N)cc2)N=[N+]1c1ccc(C(=N)N)cc1.Cl.Cl.Cl.Cl.O.O` [PtPz6, [Pt2(N-ethylpyrazole)4(berenil)2]·4HCl·2H2O], the “percent of cells with active caspase-9” value in experiment [1] is 24.6%; in experiment [5], 24.1%. Further, the results for the “percent of cells with active caspase-8” value in experiment [2] and in experiment [6] were 21.0% and 21.1%, respectively. Moreover, the IC50 in experiment [3] (MCF-7, 24 h incubation) was over 50 µM; in experiment [3] (MCF-7, 48 h incubation), 48 ± 2 µM; in experiment [8] (MDA-MB-231, 24 h incubation), over 50 µM; in experiment [8] (MDA-MB-231, 48 h incubation), 39 ± 2 µM. In addition, in experiment [4], the “percent of TUNEL positive cells” value stood at 13.2%. The “percent of cells with active caspase-3” value in experiment [7] was determined as 11.0%.

Turning to `Cc1cc(C)[n+]([Pt-2]2([n+]3[nH]c(C)cc3C)[N](c3ccc(C(=N)N)cc3)N=[N+](c3ccc(C(=N)N)cc3)[Pt-2]([n+]3[nH]c(C)cc3C)([n+]3[nH]c(C)cc3C)[N](c3ccc(C(=N)N)cc3)N=[N+]2c2ccc(C(=N)N)cc2)[nH]1.Cl.Cl.Cl.Cl.O.O` [PtPz2, [Pt2(3,5-dimethylpyrazole)4(berenil)2]·4HCl·2H2O], the “percent of cells with active caspase-9” value is listed as 46.5% in experiment [1] and 50.5% in experiment [5]. Also, the “increase in caspase-8 activity compared with the control” value is about 12 fold in experiment [2] and “about 10 fold” in experiment [6]. In addition, the “percent of cells with active caspase-8” value came out at 56.2% in experiment [2] and 45.8% in experiment [6]. The IC50 in experiment [3] (MCF-7, 24 h incubation) is 20 ± 2 µM; in experiment [3] (MCF-7, 48 h incubation) it was 13 ± 2 µM; in experiment [8] (MDA-MB-231, 24 h incubation), 17 ± 2 µM; in experiment [8] (MDA-MB-231, 48 h incubation) it was 11 ± 1 µM. Also, the “percent of TUNEL positive cells” value in experiment [4] is on record as 55.8%. For the same molecule, in experiment [7], the “increase in caspase-3 activity compared with untreated cells” value is “nine-fold increase”. The “percent of cells with active caspase-3” value in experiment [7] was found to be 28.9%.

For `Cc1ccn[nH]1.Cc1ccn[nH]1.Cc1ccn[nH]1.Cc1ccn[nH]1.Cl.Cl.Cl.Cl.N=C(N)c1ccc(N=N[N]([Pt])c2ccc(C(=N)N)cc2)cc1.N=C(N)c1ccc(N=N[N]([Pt])c2ccc(C(=N)N)cc2)cc1.O.O` [PtPz5, [Pt2(5-methylpyrazole)4(berenil)2]·4HCl·2H2O], the “percent of cells with active caspase-9” value in experiment [1] was 38.6%; in experiment [5] it was 39.6%. For the same molecule, the entries for the “percent of cells with active caspase-8” value in experiment [2] and in experiment [6] were 46.1% and 37.9%, respectively. Besides, the IC50 was 28 ± 2 µM in experiment [3] (MCF-7, 24 h incubation); 22 ± 2 µM in experiment [3] (MCF-7, 48 h incubation); 29 ± 1 µM in experiment [8] (MDA-MB-231, 24 h incubation); 19 ± 2 µM in experiment [8] (MDA-MB-231, 48 h incubation). In addition, the “percent of TUNEL positive cells” value in experiment [4] stood at 31.6%. The “percent of cells with active caspase-3” value in experiment [7] is given as 21.0%.
